Patent US20240122853A1, “COMPOSITION FOR PENETRATING BLOOD-BRAIN BARRIER, CONTAINING SONOSENSITIVE LIPOSOMES AS ACTIVE INGREDIENTS” (IMGT CO, LTD., priority 2021, published 2024)

Assay: Evans blue penetration after blood-brain barrier opening by ultrasound and microbubbles
Assay type: in vivo, BALB/c nude mice
Experimental: To derive the optimal ultrasound conditions for opening the blood-brain barrier (BBB), the degree of opening of the blood-brain barrier was compared and analyzed using Evans blue. Evans blue is a very small dye with a molecular weight of 961 Da and is widely used for analyzing the degree of opening of the blood-brain barrier. The experiment was performed using normal BALB/c nude mice, and after injecting microbubbles via intravenous injection, ultrasound was emitted using a high-intensity focused ultrasound device, VIFU2000. […] The brain tissue was soaked in formamide, incubated overnight at 70° C. to extract Evans blue in the brain tissue, and the degree of opening of the blood-brain barrier was quantitatively analyzed by measuring the absorbance at wavelengths of 670 nm and 740 nm using UV-vis.
Factors that can affect the cavitation of ultrasound and microbubbles, a mechanism that opens the blood-brain barrier, include ultrasound conditions such as the frequency, intensity, duty cycle, and ultrasound emission time of the ultrasound, and also the number of microbubbles. Therefore, to confirm the ultrasound conditions and the number of microbubbles that can open the blood-brain barrier, the degree of opening of the blood-brain barrier according to the number of microbubbles was first quantitatively analyzed. […]

Penetration effect into brain depending on ultrasound intensity and emission time (microbubbles 5×10^6/g, 1-3 W, duty cycle 1-10%, 60-180 s): increased proportionally
SMILES: Cc1cc(-c2ccc(/N=N/c3ccc4c(S(=O)(=O)O)cc(S(=O)(=O)O)c(N)c4c3O)c(C)c2)ccc1/N=N/c1ccc2c(S(=O)(=O)O)cc(S(=O)(=O)O)c(N)c2c1O [Evans blue]
Penetration efficiency into brain depending on number of microbubbles (1 MHz, 1 W, DC 5%, PRF 1 Hz, 60 s, 2, 5, 10 × 10^6/g microbubbles, brain 24 hours later): improving the penetration efficiency of Evans blue
